The first test has as its target human FXIa (Homo sapiens, UniProt P03951). The experiment in a line: In vitro activated factor XI (FXIa) inhibition test. It counts as biochemical.
Settings: not given
As for the experimental part: To the substrate, S-2366 (pyroGlu-Pro-Arg-pNA•HCl) was added to a final concentration of 300 µmol/L. After the reaction had progressed, the absorbance at OD 405 nm was measured. […]
Sequence of human FXIa (P03951 388-625 limits assumed): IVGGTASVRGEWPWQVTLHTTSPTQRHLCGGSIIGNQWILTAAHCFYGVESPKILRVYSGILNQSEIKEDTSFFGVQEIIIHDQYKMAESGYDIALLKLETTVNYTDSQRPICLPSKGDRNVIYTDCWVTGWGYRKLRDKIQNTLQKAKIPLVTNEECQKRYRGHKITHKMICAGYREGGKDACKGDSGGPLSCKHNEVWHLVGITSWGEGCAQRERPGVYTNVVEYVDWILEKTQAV
Sequence of human FXIa (P03951 19-387 partner limits assumed): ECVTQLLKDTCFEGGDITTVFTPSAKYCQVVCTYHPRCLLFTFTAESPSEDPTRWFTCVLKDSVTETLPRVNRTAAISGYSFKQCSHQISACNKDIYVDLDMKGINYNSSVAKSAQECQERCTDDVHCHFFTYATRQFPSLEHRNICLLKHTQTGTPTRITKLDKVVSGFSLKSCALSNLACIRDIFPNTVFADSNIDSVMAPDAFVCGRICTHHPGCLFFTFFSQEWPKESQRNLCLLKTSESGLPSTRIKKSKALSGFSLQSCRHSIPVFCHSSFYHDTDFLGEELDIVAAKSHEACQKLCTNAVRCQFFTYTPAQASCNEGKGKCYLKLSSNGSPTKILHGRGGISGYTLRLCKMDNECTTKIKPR
Compound `N[C@H](CF)[C@H]1CC[C@H](C(=O)N2CCC(C3CCCCC3)[C@H]2C(=O)Nc2ccc3sc(C(=O)O)cc3c2)CC1` (single isomer, unassigned) [compound 130] displayed a half-inhibitory concentration (IC50) of 195 nM.

`NC(CF)[C@H]1CC[C@H](C(=O)N2CC[C@@H](C3CCCCC3)[C@H]2C(=O)Nc2ccc3oc(C(=O)O)cc3c2)CC1` (stereo partly drawn) [compound 50] displayed an IC50 of 84 nM.

`COC1CCC([C@@H]2CCN(C(=O)[C@H]3CC[C@H]([C@H](N)CF)CC3)[C@@H]2C(=O)Nc2ccc3oc(C(=O)O)cc3c2)CC1` (stereo partly drawn) [compound 102] had an IC50 of 93 nM.

The compound `N[C@H](CF)[C@H]1CC[C@H](C(=O)N2CC[C@@H](C3CCCCC3)[C@H]2C(=O)Nc2ccc(C(=O)NS(=O)(=O)c3ccccc3)cc2)CC1` [compound 118] registered a half-inhibitory concentration (IC50) of 65 nM.

Consider `N[C@H](CF)[C@H]1CC[C@H](C(=O)N2CC[C@@H](C3CCCCC3)[C@H]2C(=O)Nc2ccc3oc(C(=O)NS(=O)(=O)c4ccccc4)cc3c2)CC1` [compound 121], for which it took 43 nM to reach half-maximal inhibition (IC50).

`N[C@H](CF)[C@H]1CC[C@H](C(=O)N2CC[C@H](c3ccccc3)[C@H]2C(=O)Nc2ccc3[nH]c(C(=O)NS(=O)(=O)N4CCOCC4)cc3c2)CC1` [compound 122]: it took 690 nM to reach half-maximal inhibition (IC50).

As to `N[C@H](CF)[C@H]1CC[C@H](C(=O)N2CC[C@@H](C3CCCCC3)[C@H]2C(=O)Nc2ccc(C(=O)NS(=O)(=O)c3ccccn3)cc2)CC1` [compound 134], the IC50 was determined as 54 nM.

`N[C@H](CF)[C@H]1CC[C@H](C(=O)N2CC[C@@H](C3CCCCC3)[C@H]2C(=O)Nc2ccc(C(=O)NCc3ccccn3)cc2)CC1` [compound 137] registered an IC50 of 380 nM.

The same test, now with this note: 0.35 µg/mL human FXIa, substrate S-2366 300 µmol/L, 37°C, 10 minutes, OD 405 nm; read-out: FXIa inhibitory activity IC50.
`NC[C@H]1CC[C@H](C(=O)N2CC[C@@H](c3ccccc3)[C@H]2C(=O)Nc2ccc(-c3nc(=O)o[nH]3)c(F)c2)CC1` [compound 14]: the IC50 worked out at 130 nM.

Regarding `NC[C@H]1CC[C@H](C(=O)N2CCC(c3ccccc3)[C@H]2C(=O)Nc2ccc3[nH]c(C(N)=O)cc3c2)CC1` (stereo partly drawn) [compound 24], the half-inhibitory concentration (IC50) was 34 nM.

`Cn1c(C(=O)O)cc2cc(NC(=O)[C@@H]3[C@H](C4CCCCC4)CCN3C(=O)[C@H]3CC[C@H](C(N)CF)CC3)ccc21` (stereo partly drawn) [compound 29]: the half-maximal inhibitory concentration (IC50) was 82 nM.

Take `NC(CF)[C@H]1CC[C@H](C(=O)N2CC[C@@H](C3CCCCC3)[C@H]2C(=O)Nc2ccc3[nH]c(C(=O)O)c(Cl)c3c2)CC1` (stereo partly drawn) [compound 34]: the IC50 came out at 28 nM.

Regarding `NC(CF)[C@H]1CC[C@H](C(=O)N2CC[C@@H](C3CCCCC3)[C@H]2C(=O)Nc2ccc3[nH]c(C(=O)O)cc3c2)CC1` (stereo partly drawn) [compound 35], the IC50 is 14 nM.

In the case of `Cc1c(C(=O)O)[nH]c2ccc(NC(=O)[C@@H]3[C@H](C4CCCCC4)CCN3C(=O)[C@H]3CC[C@H](C(N)CF)CC3)cc12` (stereo partly drawn) [compound 39], the 50% inhibitory concentration (IC50) is 63 nM.

As for `CC(N)[C@H]1CC[C@H](C(=O)N2CC[C@H](c3ccccc3)[C@H]2C(=O)Nc2ccc3oc(C(=O)O)cc3c2)CC1` (stereo partly drawn) [compound 46], the IC50 was determined as 90 nM.

For `Cc1c(C(=O)O)oc2ccc(NC(=O)[C@@H]3[C@H](C4CCCCC4)CCN3C(=O)[C@H]3CC[C@H]([C@H](N)CF)CC3)cc12` [compound 55], the IC50 is 220 nM.

For `N[C@H](CF)[C@H]1CC[C@H](C(=O)N2CC[C@@H](C3CCCCC3)[C@H]2C(=O)Nc2ccc(C(=O)O)cc2)CC1` [compound 96], the IC50 turned out to be 98 nM.

As for `COC1CCC([C@@H]2CCN(C(=O)[C@H]3CC[C@H]([C@H](N)CF)CC3)[C@@H]2C(=O)Nc2ccc3oc(C(=O)O)cc3c2)CC1` (stereo partly drawn) [compound 103], the IC50 came out at 2350 nM.

Consider `CS(=O)(=O)NC(=O)c1cc2cc(NC(=O)[C@@H]3[C@H](C4CCCCC4)CCN3C(=O)[C@H]3CC[C@H]([C@H](N)CF)CC3)ccc2[nH]1` [compound 114], for which the IC50 worked out at 7 nM.

As for `Cc1noc(-c2ccc(NC(=O)[C@@H]3[C@H](C4CCCCC4)CCN3C(=O)[C@H]3CC[C@H]([C@H](N)CF)CC3)cc2)n1` [compound 115], the IC50 is 1500 nM.

Take `N[C@H](CF)[C@H]1CC[C@H](C(=O)N2CC[C@@H](C3CCCCC3)[C@H]2C(=O)Nc2ccc(C(=O)NS(=O)(=O)c3ccccc3)c(F)c2)CC1` [compound 133]: the IC50 was 99 nM.

A word on the IC50: it is the concentration needed to halve the response being measured.

Values taken from patent publication EP2876105A1, “1-(CYCLOALKYL-CARBONYL)PROLINE DERIVATIVE” (Sumitomo Dainippon Pharma Co., Ltd., priority 2012, dated 2014).
